Data on 19 molecules can be found in US11179389B2, “Purine inhibitors of human phosphatidylinositol 3-kinase delta” (Merck Sharp & Dohme Corp., priority 2017, dated 2021).

The target of one experiment is PI3Kdelta (Homo sapiens (Human), UniProt O00329). Description: HTRF PI3K biochemical assay, delta isoform. Particulars: 0.3 nM enzyme, 100 uM ATP, 5 uM PIP2, form screened per table (Neutral or TFA salt). From the text: (§1) HTRF PI3K Biochemical Assay to Measure Intrinsic Potency of Compound Inhibitors
(§2) The PI3-Kinase biochemical assays were developed to measure the intrinsic potency and compound dependent inhibition of the alpha, beta, delta, and gamma PI3K isoform enzymes. This assay was developed and further optimized from a kit produced by Upstate (Millipore catalog #33-047) (Millipore Sigma. Billerica Mass., USA) and has been configured for high throughput screening (HTS) and structure-activity relationship (SAR) screening. Briefly, this procedure exploits the exquisite specificity and high affinity binding of enzyme reaction […] phosphatidyl(3,4,5)triphosphate (PIP3) to the GRP1 pleckstrin homology (PH) domain to generate the signal. In the absence of PIP3, an HTRF (Homogeneous Time-Resolved Fluorescence energy transfer) complex is formed consisting of europium (Eu)-labeled anti-GST, GSTtagged GRP1-PH domain, biotin-PIP3 (biotinylated-PIP3) and streptavidin conjugated APC (Allophycocyanin). The native PIP3 produced by PI3-Kinase activity disrupts in a competitive manner the biotin-PIP3 from the pleckstrin homology (PH) domain, resulting in the loss of energy transfer (HTRF complex) and a decrease in the signal. The format of this assay is the same for all 4 isoforms of PI3K; the differences lie in the concentration of enzyme used to achieve robust assay window. The alpha, beta, and delta assays are run at 0.5, 1, and 0.3 nM enzymes and the gamma assay is run at 5 nM enzyme. The ATP concentration is 100 uM in the alpha, beta, and delta assays and 50 uM adenosine triphosphate (ATP) in the gamma assay. All reactions are run at 5 uM PIP2.
(§3) Compounds are serially diluted (3-fold in 100% DMSO) across a 384-well polypropylene source plated from column 3 to column 12 and column 13 to column 22, to yield 10 concentration dose response for each test compound. Columns 1, 2, 23 and 24 contain either only DMSO or pharmacological known control inhibitor. Once titrations are made, 2.5 nL of the compounds on 384 well plates are reformatted and transferred by acoustic dispense in quadruplicates to a 1536 assay plate (Greiner) to assay across all four PI3K isoform enzymes.
(§4) The PI3-Kinase biochemical assay was optimized using the HTRF kit provided by Upstate (Millipore). The assay kit contains six reagents: 1) 4×Reaction Buffer; 2) native PIP2 (substrate); 3) Stop (EDTA); 4) Detection Mix A (Streptavidin-APC); 5) Detection Mix B (Eu-labeled Anti-GST plus GST-tagged PH-domain): 6) Detection Mix C. In addition, the following items were obtained or purchased; PI3Kinase (catalog #'s alpha 14-602, beta 14-603, gamma 14-558 and delta 14-604 from Upstate Biotechnology now EMD Millipore, Mahopac, N.Y., USA), dithiothreitol (Sigma-Aldrich Corp. (St. Louis, Mo., USA) Catalog #D-5545), Adenosine-5′ triphosphate (InVitrogen (Waltham, Mass., USA), Cat#AS001 Å), native PIP3 (PI(3,4,5)P3, diC8, H^+, CELLSIGNALS, INC., (Columbus, Ohio, USA) Cat #907) DMSO ((Sigma-Aldrich Corp. (St. Louis. Mo., USA) Catalog #472301).
(§5) PI3Kinase Reaction Buffer is prepared by dilution the stock 1:4 with de-ionized water. DTT (DL-Dithiothreitol), phosphatidylinositol 4,5-bisphosphate (PIP2) and Biotin-PIP3 were added to 1536 assay plate at a final concentration of 5 mM, […] and 25 nM on the day of use. Enzyme addition and compound pre-incubation are initiated by the addition of 1.25 ul of PI3K (at twice its final concentration) in the 1× reaction buffer to all wells using a BioRaptor™. Plates are incubated at room temperature for 15 minutes. Reactions are initiated by addition of 1.25 ul of 2× substrate solution (PIP2 and ATP in 1× reaction buffer) using BioRaptor™. Plates are incubated in humidified chamber at room temperature for one hour. Reactions are quenched by addition of 0.625 uL of stop solution to all wells using the BioRaptor™. […]

For the next experiment, the target named is PI3Kalpha (Homo sapiens (Human), UniProt P42336). In words: HTRF PI3K biochemical assay, alpha isoform (for selectivity ratio). Particulars: ratio PI3K-alpha IC50 value / PI3K-delta IC50 value.
From the text: as §1, §2, §3, §4, §5
On the technique in general: TR-FRET usually uses a lanthanide donor and a delayed reading to cut background.

Chain of PI3Kdelta (O00329 whole entry, canonical isoform): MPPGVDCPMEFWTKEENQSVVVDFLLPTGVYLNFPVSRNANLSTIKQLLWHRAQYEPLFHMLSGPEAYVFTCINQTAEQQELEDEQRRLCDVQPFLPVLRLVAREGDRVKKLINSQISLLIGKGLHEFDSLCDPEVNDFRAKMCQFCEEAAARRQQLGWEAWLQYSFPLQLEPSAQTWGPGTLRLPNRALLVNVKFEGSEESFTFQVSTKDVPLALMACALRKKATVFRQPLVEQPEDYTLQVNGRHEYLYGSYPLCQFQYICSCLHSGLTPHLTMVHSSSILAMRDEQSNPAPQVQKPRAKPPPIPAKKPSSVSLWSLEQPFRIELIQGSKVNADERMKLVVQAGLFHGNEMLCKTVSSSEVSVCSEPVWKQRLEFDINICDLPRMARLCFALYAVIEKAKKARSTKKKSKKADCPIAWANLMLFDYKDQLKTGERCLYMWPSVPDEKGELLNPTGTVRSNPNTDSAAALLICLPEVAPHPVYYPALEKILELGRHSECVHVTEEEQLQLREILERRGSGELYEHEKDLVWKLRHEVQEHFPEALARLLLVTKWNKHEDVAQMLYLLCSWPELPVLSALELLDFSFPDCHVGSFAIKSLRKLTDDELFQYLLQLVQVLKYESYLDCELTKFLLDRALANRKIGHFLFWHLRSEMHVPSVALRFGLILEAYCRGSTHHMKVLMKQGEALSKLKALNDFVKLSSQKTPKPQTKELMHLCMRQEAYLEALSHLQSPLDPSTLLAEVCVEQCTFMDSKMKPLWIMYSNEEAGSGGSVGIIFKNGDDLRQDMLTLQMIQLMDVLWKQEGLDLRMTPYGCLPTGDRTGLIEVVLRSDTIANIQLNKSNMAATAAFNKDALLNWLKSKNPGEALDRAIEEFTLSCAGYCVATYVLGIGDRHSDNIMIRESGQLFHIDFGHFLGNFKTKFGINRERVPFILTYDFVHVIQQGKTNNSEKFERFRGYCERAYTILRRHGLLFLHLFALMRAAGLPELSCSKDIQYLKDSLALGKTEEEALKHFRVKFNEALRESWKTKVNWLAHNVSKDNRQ
Chain of PI3Kdelta (P27986 whole entry partner, canonical isoform): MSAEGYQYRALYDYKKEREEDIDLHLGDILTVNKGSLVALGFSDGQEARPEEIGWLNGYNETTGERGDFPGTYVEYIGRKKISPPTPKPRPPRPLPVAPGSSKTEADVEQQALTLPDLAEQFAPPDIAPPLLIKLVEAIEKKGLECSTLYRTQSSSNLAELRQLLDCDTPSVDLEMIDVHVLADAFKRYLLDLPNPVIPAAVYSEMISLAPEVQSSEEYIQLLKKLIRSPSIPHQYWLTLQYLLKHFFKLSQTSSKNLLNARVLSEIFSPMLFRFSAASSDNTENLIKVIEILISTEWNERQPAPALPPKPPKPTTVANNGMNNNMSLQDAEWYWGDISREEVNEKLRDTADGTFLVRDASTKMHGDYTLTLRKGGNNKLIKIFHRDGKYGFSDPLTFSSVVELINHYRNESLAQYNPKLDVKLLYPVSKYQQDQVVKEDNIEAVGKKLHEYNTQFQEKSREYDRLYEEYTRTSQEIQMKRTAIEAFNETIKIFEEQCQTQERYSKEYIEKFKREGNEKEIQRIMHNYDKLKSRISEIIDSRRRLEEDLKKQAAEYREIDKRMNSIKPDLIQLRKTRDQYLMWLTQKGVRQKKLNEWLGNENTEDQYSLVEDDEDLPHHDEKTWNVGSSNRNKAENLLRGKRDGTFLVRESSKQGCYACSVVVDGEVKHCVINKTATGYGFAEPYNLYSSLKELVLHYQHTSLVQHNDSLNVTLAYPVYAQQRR
Chain of PI3Kalpha (P42336 whole entry, canonical isoform): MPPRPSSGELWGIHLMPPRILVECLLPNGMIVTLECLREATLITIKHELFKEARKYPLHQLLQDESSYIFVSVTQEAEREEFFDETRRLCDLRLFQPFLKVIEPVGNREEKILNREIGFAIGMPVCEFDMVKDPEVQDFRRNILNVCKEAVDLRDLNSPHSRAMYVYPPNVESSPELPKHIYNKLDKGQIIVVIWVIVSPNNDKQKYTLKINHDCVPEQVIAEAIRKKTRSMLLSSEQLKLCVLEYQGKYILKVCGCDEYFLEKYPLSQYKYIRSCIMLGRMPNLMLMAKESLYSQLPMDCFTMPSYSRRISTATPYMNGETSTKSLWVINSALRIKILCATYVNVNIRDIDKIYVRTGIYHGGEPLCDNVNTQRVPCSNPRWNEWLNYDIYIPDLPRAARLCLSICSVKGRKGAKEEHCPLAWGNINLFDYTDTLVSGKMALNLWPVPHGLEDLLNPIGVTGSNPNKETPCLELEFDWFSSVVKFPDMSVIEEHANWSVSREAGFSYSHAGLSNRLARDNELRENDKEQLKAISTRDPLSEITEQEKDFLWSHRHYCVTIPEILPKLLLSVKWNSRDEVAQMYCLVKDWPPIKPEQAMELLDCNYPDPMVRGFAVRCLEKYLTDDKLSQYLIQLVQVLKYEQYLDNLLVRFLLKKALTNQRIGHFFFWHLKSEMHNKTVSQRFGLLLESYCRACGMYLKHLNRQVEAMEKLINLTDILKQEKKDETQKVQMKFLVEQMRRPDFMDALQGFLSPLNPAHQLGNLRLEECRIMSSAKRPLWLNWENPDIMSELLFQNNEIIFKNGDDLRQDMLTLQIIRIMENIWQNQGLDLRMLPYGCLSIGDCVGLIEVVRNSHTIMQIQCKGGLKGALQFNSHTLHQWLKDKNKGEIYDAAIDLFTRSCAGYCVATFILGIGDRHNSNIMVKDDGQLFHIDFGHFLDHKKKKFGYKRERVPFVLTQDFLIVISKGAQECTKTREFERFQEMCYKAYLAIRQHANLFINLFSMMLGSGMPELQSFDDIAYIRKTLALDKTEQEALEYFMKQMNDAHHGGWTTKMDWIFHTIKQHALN
Chain of PI3Kalpha (P27986 whole entry partner, canonical isoform): as the sequence (P27986 whole entry partner, canonical isoform) above

For the molecule `Cn1cc(-c2nc(N3CCC4(CC3)NC(=O)OC4CC3CC3)cnc2C#N)cn1` (single isomer, unassigned) [Compound 1-7, 5-[4-(cyclopropylmethyl)-2-oxo-3-oxa-1,8-diazaspiro[4.5]dec-8-yl]-3-(1-methyl-1H-pyrazol-4-yl)pyrazine-2-carbonitrile], the IC50 on PI3Kdelta is 0.055 µM. The “Selectivity versus PI3Kalpha” value at PI3Kalpha was over 10.
For `CCC1C(=O)NCC12CCN(c1cnc(C#N)c(-c3cnn(C)c3)n1)CC2` (single isomer, unassigned) [Compound 1-8, 5-(4-ethyl-3-oxo-2,8-diazaspiro[4.5]dec-8-yl)-3-(1-methyl-1H-pyrazol-4-yl)pyrazine-2-carbonitrile], on PI3Kdelta, the IC50 was found to be 0.06 µM. In addition, on PI3Kalpha, the “Selectivity versus PI3Kalpha” value was over 10.
As for `CC(C)CC1OC(=O)NCC12CCN(c1cnc(C#N)c(-c3cnn(C)c3)n1)CC2` (single isomer, unassigned) [Compound 1-10, 5-[1-(2-methylpropyl)-3-oxo-2-oxa-4,9-diazaspiro[5.5]undec-9-yl]-3-(1-methyl-1H-pyrazol-4-yl)pyrazine-2-carbonitrile], the IC50 on PI3Kdelta was determined as 0.03 µM. On PI3Kalpha, the “Selectivity versus PI3Kalpha” value is listed as over 10.
The matching figures for `Cn1cc(-c2nc(N3CCC4(CCC(=O)N4CC4CC4)CC3)cnc2C#N)cn1` [Compound 1-1, 5-[1-(cyclopropylmethyl)-2-oxo-1,8-diazaspiro[4.5]dec-8-yl]-3-(1-methyl-1H-pyrazol-4-yl)pyrazine-2-carbonitrile]: 0.0054 µM and over 10.
The matching figures for `Cn1cc(-c2nc(N3CCC4(CC3)COC(=O)N4CC3(C)COC3)cnc2C#N)cn1` [Compound 1-2, 5-{1-[(3-methyloxetan-3-yl)methyl]-2-oxo-3-oxa-1,8-diazaspiro[4.5]dec-8-yl}-3-(1-methyl-1H-pyrazol-4-yl)pyrazine-2-carbonitrile]: 0.045 µM and over 10.
For the molecule `Cn1cc(-c2nc(N3CCC4(CC3)CNC(=O)N4CC3CC3)cnc2C#N)cn1` [Compound 1-3, 5-[1-(cyclopropylmethyl)-2-oxo-1,3,8-triazaspiro[4.5]dec-8-yl]-3-(1-methyl-1H-pyrazol-4-yl)pyrazine-2-carbonitrile], the concentration for half-maximal inhibition (IC50) at PI3Kdelta amounted to 0.0097 µM. For the same molecule, on PI3Kalpha, the “Selectivity versus PI3Kalpha” value was over 10.
With `CN(C)CCN1CC2(CCN(c3cnc(C#N)c(-c4cnn(C)c4)n3)CC2)N(CC2CC2)C1=O` [Compound 1-4, 5-{1-(cyclopropylmethyl)-3-[2-(dimethylamino)ethyl]-2-oxo-1,3,8-triazaspiro[4.5]dec-8-yl}-3-(1-methyl-1H-pyrazol-4-yl)pyrazine-2-carbonitrile], on PI3Kdelta, the IC50 is 0.01 µM. For the same molecule, at PI3Kalpha, the “Selectivity versus PI3Kalpha” value is reported as over 10.
In the same order, the values of `CC(N1C(=O)N(CCN(C)C)CC12CCN(c1cnc(C#N)c(-c3cnn(C)c3)n1)CC2)C(F)(F)F` (centres unmarked) [Compound 1-5, 5-{3-[2-(dimethylamino)ethyl]-2-oxo-1-(2,2,2-trifluoro-1-methylethyl)-1,3,8-triazaspiro[4.5]dec-8-yl}-3-(1-methyl-1H-pyrazol-4-yl)pyrazine-2-carbonitrile] are 0.0072 µM and over 10.
Consider `Cn1cc(-c2nc(N3CCC4(CC3)CNS(=O)(=O)N4CC3CC3)cnc2C#N)cn1` [Compound 1-6, 5-[1-(cyclopropylmethyl)-2,2-dioxido-2-thia-1,3,8-triazaspiro[4.5]dec-8-yl]-3-(1-methyl-1H-pyrazol-4-yl)pyrazine-2-carbonitrile], for which the IC50 on PI3Kdelta turned out to be 0.012 µM. Moreover, the “Selectivity versus PI3Kalpha” value on PI3Kalpha was over 10.
In the same order, the values of `COCCN1CC2(CCN(c3cnc(C#N)c(-c4cnn(C)c4)n3)CC2)N(CC2CC2)C1=O` [Compound 1-9, 5-[1-(cyclopropylmethyl)-3-(2-methoxyethyl)-2-oxo-1,3,8-triazaspiro[4.5]dec-8-yl]-3-(1-methyl-1H-pyrazol-4-yl)pyrazine-2-carbonitrile] are 0.018 µM and over 10.
As for `Cn1cc(-c2nc(N3CCC4(CC3)CNC(=O)N4CC(F)(F)F)cnc2C#N)cn1` [Compound 1-11, 3-(1-methyl-1H-pyrazol-4-yl)-5-[2-oxo-1-(2,2,2-trifluoroethyl)-1,3,8-triazaspiro[4.5]dec-8-yl]pyrazine-2-carbonitrile], the IC50 at PI3Kdelta turned out to be 0.032 µM. For the same molecule, the “Selectivity versus PI3Kalpha” value on PI3Kalpha was over 10.
In the same order, the values of `N#Cc1ncc(N2CCC3(CC2)COC(=O)N3CC2CC2)nc1-c1cnn(C(F)F)c1` [Compound 1-12, 5-[1-(cyclopropylmethyl)-2-oxo-3-oxa-1,8-diazaspiro[4.5]dec-8-yl]-3-[1-(difluoromethyl)-1H-pyrazol-4-yl]pyrazine-2-carbonitrile] are 0.054 µM and over 10.
The matching figures for `C[C@@H]1CN(c2nc(-c3cnn(C)c3)cnc2C#N)CCN1C(=O)C1CC1` [Compound 1-13, 3-[(3R)-4-(cyclopropylcarbonyl)-3-methylpiperazin-1-yl]-5-(1-methyl-1H-pyrazol-4-yl)pyrazine-2-carbonitrile]: 0.19 µM and over 10.
The matching figures for `C[C@@H]1C[C@H]1C(=O)N1CCN(c2cnc(C#N)c(-c3cnn(C)c3)n2)C[C@H]1C` [Compound 1-14, 5-[(3R)-3-methyl-4-{[(1R,2R)-2-methylcyclopropyl]carbonyl}piperazin-1-yl]-3-(1-methyl-1H-pyrazol-4-yl)pyrazine-2-carbonitrile]: 0.0089 µM and over 10.
As to `C[C@@H]1CN(c2cnc(C#N)c(-c3cnn(C)c3)n2)CCN1C(=O)C1CC1` [Compound 1-15, 5-[(3R)-4-(cyclopropylcarbonyl)-3-methylpiperazin-1-yl]-3-(1-methyl-1H-pyrazol-4-yl)pyrazine-2-carbonitrile], on PI3Kdelta, the half-maximal inhibitory concentration (IC50) stood at 0.033 µM. Moreover, the “Selectivity versus PI3Kalpha” value on PI3Kalpha is reported as over 10.
Turning to `C[C@@H]1CN(c2cnc(C#N)c(-c3cnn(C)c3)n2)CCN1C(=O)NC1CC1` [Compound 1-16, (2R)-4-[5-cyano-6-(1-methyl-1H-pyrazol-4-yl)pyrazin-2-yl]-N-cyclopropyl-2-methylpiperazine-1-carboxamide], the IC50 at PI3Kdelta was found to be 0.28 µM. Moreover, the “Selectivity versus PI3Kalpha” value at PI3Kalpha is listed as over 10.
In the same order, the values of `C[C@@H]1C[C@H]1C(=O)N1CCN(c2cnc(C#N)c(-c3cnn(C(F)F)c3)n2)C[C@H]1C` [Compound 1-17, 3-[1-(difluoromethyl)-1H-pyrazol-4-yl]-5-[(3R)-3-methyl-4-{[(1R,2R)-2-methylcyclopropyl]carbonyl}piperazin-1-yl]pyrazine-2-carbonitrile] are 0.073 µM and over 10.
Regarding `[2H]C([2H])([2H])n1cc(-c2nc(N3CCN(C(=O)C4CC4)[C@H](C)C3)cnc2C#N)cn1` [Compound 1-18, 5-[(3R)-4-(cyclopropylcarbonyl)-3-methylpiperazin-1-yl]-3-[1-(~2~H_3_)methyl-1H-pyrazol-4-yl]pyrazine-2-carbonitrile], the IC50 on PI3Kdelta is 0.016 µM. Also, the “Selectivity versus PI3Kalpha” value at PI3Kalpha is recorded as over 10.
The matching figures for `CC(C)C[C@@H]1CN(c2cnc(C#N)c(-c3cnn(C)c3)n2)CCN1C(=O)C1CC1` [Compound 1-19, 5-[(3R)-4-(cyclopropylcarbonyl)-3-(2-methylpropyl)piperazin-1-yl]-3-(1-methyl-1H-pyrazol-4-yl)pyrazine-2-carbonitrile]: 0.039 µM and over 10.

The term IC50 denotes the midpoint of a concentration-inhibition curve.
